Data published in US7186701B2, “Dehydrating agent and method for dehydrating moist article using the agent and dehydrated article obtained by the method” (Kabushiki Kaisha Hayashibara Seibutsu Kagaku Kenkyujo, priority 2001, dated 2007).

Legend:
[1] = tested on: Eubacterium aerofaciens ATCC 25986; experiment: Assimilation test; assay type: cell-based; conditions: 0.5% saccharide in PYF medium, 37° C., four days, anaerobic
[2] = tested on: Clostridium perfringens JCM 3816; assay type: cell-based; conditions: 0.5% saccharide in PYF medium, 37° C., four days, anaerobic
[3] = pH stability; assay type: physicochemical; conditions: 4% (w/v), 100° C., 24 hours; for Purity (%) after heating: HPLC
Description: Eight milliliters of each solution was placed in a glass test tube, followed by sealing and then heating the test tube at 100° C. for 24 hours. After the heating, each solution was cooled and measured for coloration degree and determined for purity on HPLC. The coloration degree was evaluated based on the absorbance in a cell with a 1-cm light pass at a wavelength of 480 nm.

[4] = Thermostability; assay type: physicochemical; conditions: 10% (w/v) aqueous solution, 120° C.; for Purity (%) after heating: HPLC
Description: After the heating, the aqueous solutions were cooled under atmospheric conditions and measured for coloration degree and determined for purity on HPLC. The coloration degree of each solution was evaluated based on the absorbance in a cell with a 1-cm light pass at a wavelength of 480 nm.

[5] = tested on: Bacteroides vulgatus JCM 5826; experiment: Assimilation test; assay type: cell-based; conditions: 0.5% saccharide in PYF medium, 37° C., four days, anaerobic
[6] = tested on: Escherichia coli IFO 3301; experiment: Assimilation test; assay type: cell-based; conditions: 0.5% saccharide in PYF medium, 37° C., four days, anaerobic

With `OCC1OC2OCC3O[C@H](O[C@H]4C(O)C(CO)OC(OCC5O[C@H](O[C@@H](C1O)C2O)C(O)C(O)[C@@H]5O)C4O)C(O)C(O)[C@@H]3O` (stereo partly drawn) [cyclotetrasaccharide, cyclo{→6)-α-D-glucopyranosyl-(1→3)-α-D-glucopyranosyl-(1→6)-α-D-glucopyranosyl-(1→3)-α-D-glucopyranosyl-(1→}] the Assimilability [1] was “− (judged as negative (−) when the post culture had a pH of 6.0 or higher)”, the Assimilability [2] was “− (judged as negative (−) when the post culture had a pH of 6.0 or higher)” and the “Coloration degree (A480 nm)” value ([3]; pH 2.0 (Acetate buffer)) was 0.00 A480 nm. The “Purity (%) after heating” value ([3]; pH 2.0 (Acetate buffer)) was 93%, the “Coloration degree (A480 nm)” value ([3]; pH 3.0 (Acetate buffer)) was 0.00 A480 nm and the “Purity (%) after heating” value ([3]; pH 3.0 (Acetate buffer)) was 100%. For the same compound, the “Coloration degree (A480 nm)” value ([3]; pH 4.0 (Acetate buffer)) was 0.00 A480 nm, the “Purity (%) after heating” value ([3]; pH 4.0 (Acetate buffer)) was 100% and the “Coloration degree (A480 nm)” value ([3]; pH 5.0 (Acetate buffer)) was 0.00 A480 nm. The “Purity (%) after heating” value ([3]; pH 5.0 (Acetate buffer)) was 100%, the “Coloration degree (A480 nm)” value ([3]; pH 6.0 (Tris-HCl buffer)) was 0.00 A480 nm and the “Purity (%) after heating” value ([3]; pH 6.0 (Tris-HCl buffer)) was 100%. The “Coloration degree (A480 nm)” value ([3]; pH 7.0 (Tris-HCl buffer)) was 0.00 A480 nm, the “Purity (%) after heating” value ([3]; pH 7.0 (Tris-HCl buffer)) was 100% and the “Coloration degree (A480 nm)” value ([3]; pH 8.0 (Tris-HCl buffer)) was 0.00 A480 nm. For the same compound, the “Purity (%) after heating” value ([3]; pH 8.0 (Tris-HCl buffer)) was 100%, the “Coloration degree (A480 nm)” value ([3]; pH 9.0 (Ammonium buffer)) was 0.00 A480 nm and the “Purity (%) after heating” value ([3]; pH 9.0 (Ammonium buffer)) was 100%. The “Coloration degree (A480 nm)” value ([3]; pH 10.0 (Ammonium buffer)) was 0.00 A480 nm, the “Purity (%) after heating” value ([3]; pH 10.0 (Ammonium buffer)) was 100% and the “Coloration degree (A480 nm)” value ([4]; heating time 0 min) was 0.00 A480 nm. For the same compound, the “Purity (%) after heating” value ([4]; heating time 0 min) was 100%, the “Coloration degree (A480 nm)” value ([4]; heating time 30 min) was 0.00 A480 nm and the “Purity (%) after heating” value ([4]; heating time 30 min) was 100%. The “Coloration degree (A480 nm)” value ([4]; heating time 60 min) was 0.00 A480 nm, the “Purity (%) after heating” value ([4]; heating time 60 min) was 100% and the “Coloration degree (A480 nm)” value ([4]; heating time 90 min) was 0.00 A480 nm. For the same compound, the “Purity (%) after heating” value ([4]; heating time 90 min) was 100%, the Assimilability [5] was “− (judged as negative (−) when the post culture had a pH of 6.0 or higher)” and the Assimilability [6] was “− (judged as negative (−) when the post culture had a pH of 6.0 or higher)”.
